# Measured values taken from patent publication US7541379B2, “Di(amido-substituted)heteroarene compounds as osteoblastogenesis agents” (The University of Hong Kong, priority 2005, dated 2009).
# Entries after “also recorded” stand apart in the source; their conditions may differ.
# What was measured:
# CCD-19L cells = assay: Cytotoxicity by MTT assay on CCD-19L cells (vs vehicle control); format: cell-based, human; conditions: 72 h
# Description: As used herein, the term “CCD-19L cells” described herein refers to normal human lung fibroblast cell line.
# (§1) Cytotoxicity assay. Vero cells, an African green monkey cell line were purchased from American Type Culture Collection (ATCC) and Cell Proliferation Kit I MTT (3-[4,5-dimethylth-iazol-2-yl]-2,5-diphenyltetrazolium bromide) assay was purchased from Roche. Normal human lung fibroblast cell line (CCD-19Lu) was obtained commercially from ATCC. CCD-19Lu cells were maintained in a minimum essential medium with Earle's balanced salts (MEM). The media were supplemented with L-glutamine (2 mM), fetal bovine serum (10%), penicillin (100 U/mL) and streptomycin (100 μg/mL). Cultures were incubated at 37° C. in a 5% CO2/95% air humidified atmosphere. Cell culture flasks and 96-well microtitre plates were purchased from Nalge Nunc Int. Culture medium, other medium constituents and phosphate buffered saline (PBS) were from Gibco BRL.
# Assays on cytotoxic effects were conducted in 96-well flat-bottomed microtitre plates. […] The formation of formazan was measured with a microtitre plate reader at 550 nm and the percentages of cell survival were determined. The cytotoxicity was evaluated based on the percentage cell survival in a dose dependent manner relative to the negative control (FIG. 8).
# MC3T3-E1 (clone 4) cells [1] = assay: MTT-based cell proliferation assay; conditions: 0.01 to 1 μg/mL, 2 days, osteogenic medium
# Protocol: (§2) Cell proliferation assay. Cell proliferation studies were performed as previously described using MTT-based (GE Healthcare, Piscataway, N.J., USA) cell proliferation assays (Cheung et a/, FEBS Lett (2006), 580, 121). After treatment with potential osteoblastogenesis modulating agents for 2 days, MTT was added at a final concentration of 0.5 mg/ml for 3 h, cells were solubilized with isopropanol containing 0.1% sodium dodecyl sulfate and 0.04 N hydrochloric acid, and the absorbance measured at 570 nm. All experiments were repeated three times.
# as §2, with “Cell” for “Cell proliferation assay. Cell”, “MTT” for “MTT-based”, “USA)” for “USA) cell proliferation”, “al,” for “a/,”, “the candidate compounds (concentrations 0.01 to 1 μg/mL)” for “potential osteoblastogenesis modulating agents”
# ALP mRNA = ALP mRNA expression by real-time quantitative RT-PCR in MC3T3-E1 (clone 4) cells; format: cell-based; conditions: 4 days, osteogenic medium
# Protocol: (§3) Cell culture. MC3T3-E1 (clone 4) cells ([…], Manassas, Va., U.S.A.) were maintained in complete growth medium, i.e., alpha-MEM supplemented with 100 U/mL penicillin, 100 μg/mL streptomycin, and 10% heat-inactivated fetal bovine serum (JRH Biosciences, Lenexa, Kans., U.S.A. Ascorbic acid (AsA) and β-glycerophosphate (β-GP) were purchased from Sigma-Aldrich Co. (St. Louis, […]., U.S.A.). For the screening of osteoblastogenesis-inducing compounds, cells were plated in 24-well plates in complete growth medium at 5×10^4 cells/cm^2 and after overnight incubation, potential osteoblastogenesis modulating agents were added at 3 different concentrations, each with 10 fold difference. […]
# (§4) Real-time quantitative reverse transcription (RT) PCR. […] ALP and osterix mRNA expression was determined by RT followed by real-time TaqMan PCR analysis. […] All PCR reactions were performed in triplicate and data obtained were analyzed using the comparative CT method (Applied Biosystems) with ALP/osterix signals normalized to 18S signal for each sample.
# MC3T3-E1 (clone 4) cells were cultured for 4 days, and total RNA was extracted. […] Expression level of osterix expression in MC3T3-E1 (clone 4) cells was determined using Real-Time TaqMan polymerase chain reaction (PCR). […]
# osterix mRNA = assay: Osterix mRNA expression by real-time quantitative RT-PCR in MC3T3-E1 (clone 4) cells; format: cell-based; conditions: 1 μg/mL (high concentrations), 4 days, osteogenic medium
# Protocol: as §3, §4
# MC3T3-E1 (clone 4) cells were cultured for 4 days, and total RNA was extracted. […] Expression level of osterix expression in MC3T3-E1 (clone 4) cells was determined using Real-Time TaqMan PCR. […]
# [2] = Cytotoxicity by standard MTT assay on Vero cells; format: cell-based, African green monkey; conditions: African green monkey, MTT assay, read-out: TC50 (the source's name)
# Protocol: as §1
# (§5) The cytotoxicity of selected compounds was determined by MTT according to manufacturer's (Roche) instructions. The experiment (cell viability using MTT as an indicator) was carried out in triplicates. The TC50 (on Vero cells, an African green monkey cell line) is ca. 50 μM, it is concluded that these compounds may be useful for osteoblastogenesis development.
# [3] = tested on: African green monkey Vero cells; assay: Cytotoxicity by standard MTT assay on Vero cells; format: cell-based
# Protocol: as §1, §5
# MC3T3-E1 (clone 4) cells [4] = assay: Bone nodule formation and mineralization (Alizarin red stain); format: cell-based; conditions: 0.01 to 1 μg/mL, 26 days, osteogenic conditions
# Protocol: Cells were washed twice with ice-cold PBS and then fixed in ice-cold fixative (10% formalin in PBS) for 15 min. After washed with deionized water, fixed cells were stained with 1% alizarin S solution, pH 4.2 for 15 min and then were washed thoroughly with deionized water. Mineralized matrix was then detected.
# ALP = ALP enzyme activity assay (PNPP hydrolysis) in MC3T3-E1 (clone 4) cells; format: cell-based
# Protocol: Cell culture. […]
# (§6) ALP assay. ALP activity was measured as p-nitrophenol produced from the hydrolysis of p-nitrophenyl phosphate (PNPP). […] The reaction was stopped by the addition of NaOH (final concentration, 0.5 M) and the absorbance was measured at 410 nm. Enzyme activity was normalized to the protein content determined using Protein Assay Kit (Bio-Rad). […]
# as §6, with “MC3T3-E1 (clone 4) cells were cultured for 4, 10, and 14 days with the presence of VCM supplemented with different concentrations (range from 0.01 to 1 μg/mL) of di(amido-substituted)heteroarene compounds. […]” for “ALP assay.”, “absorbance” for “absorbance was”
structure (smiles),measurement,setting,value
Cc1ccc(S(=O)(=O)Nc2cn(C)cc2NS(=O)(=O)c2ccc(C)cc2)cc1 [compound 1],cytotoxicity on CCD-19L cells,CCD-19L cells,low cytotoxicity
same,effect on cell proliferation (MTT),MC3T3-E1 (clone 4) cells [1],did not alter
same,ALP mRNA expression up-regulated,ALP mRNA; 0.1 μg/mL,16%
same,effect on ALP mRNA expression,ALP mRNA; 0.1 and 1 μg/mL,enhanced ALP mRNA expression
same,effect on osterix mRNA expression,osterix mRNA,effectively up-regulated mRNA expression of osterix; also recorded: enhanced osterix mRNA expression
same,CC50,[2],57 µM
same,CC50,"[3]; MTT assay, read-out: TC50 (the source's name)",≤ 57 µM
same,cytotoxicity on Vero cells,[3]; standard MTT assay,low cytotoxicity
same,effect on mineralization of bone nodules,MC3T3-E1 (clone 4) cells [4],potentiated mineralization of bone nodules
same,effect on ALP enzyme activity,"ALP; 0.01 to 1 μg/mL, osteogenic medium, 4, 10 and 14 days",significantly enhanced ALP enzyme activity in a dose-dependent manner
same,ALP activity up-regulated compared to the control,"ALP; 14 days of treatment, 0.1 μg/mL, osteogenic medium",2 fold
